“And” between values parts separate entries of the source, which are not always exact repeats. Equal entries are not always repeated.

One test has as its system DLD-1 cells. The test is described as follows: Crizotinib synergistic effect with BRAFi in colorectal cells (FIG. 9). It counts as cell-based, human. An excerpt: The DLD-1 cells do harbor the BRAF activating mutation V600E but are not sensitive at all to BRAF inhibition. They actually grow faster under BRAFi.
Test [1] relates to V600E BRAF melanoma cell lines. Kind of test: HGF-induced / stromal resistance of melanoma cell lines to BRAF, MEK and AKT inhibitors and its reversal. The note with it: V600E BRAF melanoma cell lines with recombinant HGF. It counts as cell-based, human.
The test system of test [2] is BRAF V600E melanoma patients. The test is described as follows: Clinical response of BRAF V600E melanoma patients to BRAFi or BRAFi + MEKi (Table 7). In kind it is in vivo, human. To be noted: one line per patient.
The subject of a further test is pERK/pAKT. Kind of test: High-throughput western analysis of pERK/pAKT re-activation by RTK ligands under BRAFi/MEKi. In kind it is cell-based, human. To be noted: under BRAFi (PLX4720); after 1 hour of cytokine treatment; six V600E BRAF melanoma cell lines. How it is done:
FIG. 23B is a western blot showing the activation of AKT (phosphorylated AKT, S473) after 1 hour and 24 hours after treatment with HGF, IGF-1 (IGF), and Insulin (INS) in the presence of BRAFi (PLX4720, 2 μM). FIG. 23C is a western blot showing the effect of HGF (25 ng/mL) on MAPK and PI3K/AKT pathway activation (pRAF1, pMEK, pERK, pAKT and pMET) in melanoma cell lines after 24 hours of treatment with 2 μM BRAFi (PLX4720) or 2 μM MEKi (PD184352).
To understand why, of all the RTKs tested, only HGF could induce such a unique primary resistance phenotype, a high-throughput western analysis was used to test the ability of all 22 RTK ligands to re-activate pERK/pAKT under BRAFi (PLX4720) treatment in six V600E BRAF melanoma cell lines. […] However, whereas the activation of both ERK and AKT by HGF under PLX4720 treatment was long lasting, the activation of either ERK or AKT by the above cytokines was only transient and thus could not confer resistance to the melanoma cell lines.

For test [3], the system named is six V600E BRAF melanoma cell lines. Kind of test: Screening of recombinant RTK ligands for ability to confer resistance to BRAFi (PLX4720) or MEKi (PD184352) (Table 4). It counts as cell-based, human. The arrangement: ability of recombinant RTK ligand to confer resistance / ability of recombinant RTK ligand to confer resistance (screening value): scale not given here. The method in brief:
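Resistance to BRAFi (PLX4720) or MEKi (PD184352) was tested in six V600E BRAF melanoma lines given one of 22 recombinant RTK ligands. For a subset of RTKs, activation was checked by high-throughput tyrosine kinase phosphorylation profiling and western blot.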

Take `C[C@@H](Oc1cc(-c2cnn(C3CCNCC3)c2)cnc1N)c1c(Cl)ccc(F)c1Cl` [Crizotinib]: the “synergistic effect of Crizotinib” value in the test with DLD-1 cells (DLD-1 cells, FIG. 9B) is on record as “no substantial synergistic effect”. Besides, the “sensitivity of colorectal cancer cell line to BRAFi on addition of Crizotinib” value in the test on DLD-1 cells (cell line printed as DLD-1, BRAF V600E) was “restores full sensitivity”. The “reversal of HGF-conferred BRAF/MEK inhibitor resistance” value in test [1] is “directly reversed”.

For the molecule `CCCS(=O)(=O)Nc1ccc(F)c(C(=O)c2c[nH]c3ncc(-c4ccc(Cl)cc4)cc23)c1F` [Vemurafenib], in test [2], the “Response (Max)” value was 90% and 72% (2×) and 50% and 100% and 25% and 23% and 22% and 10% and 0% (4×) and 54% and 34% and 20% and 56% and 27%; the “Response (Max), category” value was “POD”; the “Time to progression (months)” value is 7 months and 3.2 months and 5 months (2×) and 3 months and 12.4 months and 8 months and 5.4 months and 4.5 months and 8.5 months and 6.0 months and 7.3 months and 3.5 months and 6.5 months and 1.3 months.

Regarding `CC(C)(C)c1nc(-c2cccc(NS(=O)(=O)c3c(F)cccc3F)c2F)c(-c2ccnc(N)n2)s1` [GSK2118436], in test [2], the “Response (Max)” value was 9% and 40%; the “Time to progression (months)” value was 3.5 months and 2.5 months.

For EGF: RTK ligand (EGFR), cytokine tested, the “re-activation of pERK/pAKT” value in the test with pERK/pAKT is “reactivate only ERK”. The “ability of recombinant RTK ligand to confer resistance” value (“ability of recombinant RTK ligand” below) in test [3] (A2058, PD184352 - 1 uM, ligand 0.4 ng/ml) is reported as 1.05; in test [3] (A2058, PD184352 - 1 uM, ligand 1.6 ng/ml), 1.04; in test [3] (A2058, PD184352 - 1 uM, ligand 6.25 ng/ml), 0.95; in test [3] (A2058, PD184352 - 1 uM, ligand 25 ng/ml), 0.96; in test [3] (A2058, PD184352 - 1 uM, ligand 100 ng/ml), 1.00; in test [3] (A2058, PLX4720 - 2 uM, ligand 0.4 ng/ml) it was 1.02. Besides, the “ability of recombinant RTK ligand” value worked out at 1.03 in test [3] (A2058, PLX4720 - 2 uM, ligand 1.6 ng/ml); 0.93 in test [3] (A2058, PLX4720 - 2 uM, ligand 6.25 ng/ml); 0.97 in test [3] (A2058, PLX4720 - 2 uM, ligand 25 ng/ml); 0.99 in test [3] (A2058, PLX4720 - 2 uM, ligand 100 ng/ml); 1.01 in test [3] (C32, PD184352 - 1 uM, ligand 0.4 ng/ml); 0.97 in test [3] (C32, PD184352 - 1 uM, ligand 1.6 ng/ml). Besides, the “ability of recombinant RTK ligand” value in test [3] (C32, PD184352 - 1 uM, ligand 6.25 ng/ml) came to 1.06; in test [3] (C32, PD184352 - 1 uM, ligand 25 ng/ml), 1.01; in test [3] (C32, PD184352 - 1 uM, ligand 100 ng/ml) it was 0.99; in test [3] (C32, PLX4720 - 2 uM, ligand 0.4 ng/ml), 1.06; in test [3] (C32, PLX4720 - 2 uM, ligand 1.6 ng/ml) it was 0.94; in test [3] (C32, PLX4720 - 2 uM, ligand 6.25 ng/ml), 1.03. Moreover, the “ability of recombinant RTK ligand” value in test [3] (C32, PLX4720 - 2 uM, ligand 25 ng/ml) stood at 0.93; in test [3] (C32, PLX4720 - 2 uM, ligand 100 ng/ml), 0.99; in test [3] (Colo 829, PD184352 - 1 uM, ligand 0.4 ng/ml), 0.97; in test [3] (Colo 829, PD184352 - 1 uM, ligand 1.6 ng/ml), 0.96; in test [3] (Colo 829, PD184352 - 1 uM, ligand 6.25 ng/ml) it was 0.99; in test [3] (Colo 829, PD184352 - 1 uM, ligand 25 ng/ml), 0.94. Besides, the “ability of recombinant RTK ligand” value was 1.00 in test [3] (Colo 829, PD184352 - 1 uM, ligand 100 ng/ml); 1.02 in test [3] (Colo 829, PLX4720 - 2 uM, ligand 0.4 ng/ml); 1.00 in test [3] (Colo 829, PLX4720 - 2 uM, ligand 1.6 ng/ml); 1.00 in test [3] (Colo 829, PLX4720 - 2 uM, ligand 6.25 ng/ml); 0.97 in test [3] (Colo 829, PLX4720 - 2 uM, ligand 25 ng/ml); 1.01 in test [3] (Colo 829, PLX4720 - 2 uM, ligand 100 ng/ml). The “ability of recombinant RTK ligand” value turned out to be 1.01 in test [3] (G-361, PD184352 - 1 uM, ligand 0.4 ng/ml); 0.90 in test [3] (G-361, PD184352 - 1 uM, ligand 1.6 ng/ml); 0.97 in test [3] (G-361, PD184352 - 1 uM, ligand 6.25 ng/ml); 1.00 in test [3] (G-361, PD184352 - 1 uM, ligand 25 ng/ml); 0.96 in test [3] (G-361, PD184352 - 1 uM, ligand 100 ng/ml); 0.98 in test [3] (G-361, PLX4720 - 2 uM, ligand 0.4 ng/ml). The “ability of recombinant RTK ligand” value was found to be 0.90 in test [3] (G-361, PLX4720 - 2 uM, ligand 1.6 ng/ml); 0.94 in test [3] (G-361, PLX4720 - 2 uM, ligand 6.25 ng/ml); 0.99 in test [3] (G-361, PLX4720 - 2 uM, ligand 25 ng/ml); 0.93 in test [3] (G-361, PLX4720 - 2 uM, ligand 100 ng/ml); 0.99 in test [3] (SK-MEL-5, PD184352 - 1 uM, ligand 0.4 ng/ml); 1.04 in test [3] (SK-MEL-5, PD184352 - 1 uM, ligand 1.6 ng/ml). Moreover, the “ability of recombinant RTK ligand” value in test [3] (SK-MEL-5, PD184352 - 1 uM, ligand 6.25 ng/ml) came to 1.08; in test [3] (SK-MEL-5, PD184352 - 1 uM, ligand 25 ng/ml), 1.11; in test [3] (SK-MEL-5, PD184352 - 1 uM, ligand 100 ng/ml), 1.01; in test [3] (SK-MEL-5, PLX4720 - 2 uM, ligand 0.4 ng/ml), 1.08; in test [3] (SK-MEL-5, PLX4720 - 2 uM, ligand 1.6 ng/ml) it was 1.15; in test [3] (SK-MEL-5, PLX4720 - 2 uM, ligand 6.25 ng/ml) it was 1.19. Besides, the “ability of recombinant RTK ligand” value in test [3] (SK-MEL-5, PLX4720 - 2 uM, ligand 25 ng/ml) worked out at 1.22; in test [3] (SK-MEL-5, PLX4720 - 2 uM, ligand 100 ng/ml), 1.11; in test [3] (SK-MEL-28, PD184352 - 1 uM, ligand 0.4 ng/ml), 1.03; in test [3] (SK-MEL-28, PD184352 - 1 uM, ligand 1.6 ng/ml) it was 0.97; in test [3] (SK-MEL-28, PD184352 - 1 uM, ligand 6.25 ng/ml), 0.93; in test [3] (SK-MEL-28, PD184352 - 1 uM, ligand 25 ng/ml), 0.97. Moreover, the “ability of recombinant RTK ligand” value in test [3] (SK-MEL-28, PD184352 - 1 uM, ligand 100 ng/ml) stood at 1.05; in test [3] (SK-MEL-28, PLX4720 - 2 uM, ligand 0.4 ng/ml), 1.00; in test [3] (SK-MEL-28, PLX4720 - 2 uM, ligand 1.6 ng/ml), 1.01; in test [3] (SK-MEL-28, PLX4720 - 2 uM, ligand 6.25 ng/ml) it was 0.97; in test [3] (SK-MEL-28, PLX4720 - 2 uM, ligand 25 ng/ml), 0.94; in test [3] (SK-MEL-28, PLX4720 - 2 uM, ligand 100 ng/ml) it was 1.03.

These data come from US20140348819A1, “Methods of Treating Cancer” (Dana-Farber Cancer Institute, Inc., priority 2011, published 2014).
